Measured values: US9693556B2, “Herbicidal pyridazinone derivatives” (SYNGENTA LIMITED, priority 2011, dated 2017)

Legend:
Type in all cases: in vivo
[1] = test system: Alopecurus myosuroides (ALOMY); experiment: Pre-emergence herbicidal glasshouse test on Alopecurus myosuroides; settings: pre-emergence; 1000 g/h; evaluated after 13 days
In short: (§1)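 Steps: sow seeds in standard soil; cultivate 1 d (pre-) or 8 d (post-emergence) at 24/16 °C, 14 h light, 65% humidity; spray 1000 g/h in acetone/water plus Tween 20; grow on, watering twice daily; score percentage damage after 13 d.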

Setaria faberi (SETFA) [2] = experiment: Pre-emergence herbicidal glasshouse test on Setaria faberi; settings: pre-emergence; 1000 g/h; evaluated after 13 days
In short: as §1

[3] = test system: Echinochloa crus-galli (ECHCG); experiment: Pre-emergence herbicidal glasshouse test on Echinochloa crus-galli; settings: pre-emergence; 1000 g/h; evaluated after 13 days
In short: as §1

Solanum nigrum (SOLNI) [4] = experiment: Pre-emergence herbicidal glasshouse test on Solanum nigrum; settings: pre-emergence; 1000 g/h; evaluated after 13 days
In short: as §1

[5] = test system: Amaranthus retoflexus (AMARE); experiment: Pre-emergence herbicidal glasshouse test on Amaranthus retoflexus; settings: pre-emergence; 1000 g/h; evaluated after 13 days
In short: as §1

[6] = test system: Ipomoea hederacea (IPOHE); experiment: Pre-emergence herbicidal glasshouse test on Ipomoea hederacea; settings: pre-emergence; 1000 g/h; evaluated after 13 days
In short: as §1

[7] = test system: Alopecurus myosuroides (ALOMY); experiment: Post-emergence herbicidal glasshouse test on Alopecurus myosuroides; settings: post-emergence; 1000 g/h; evaluated after 13 days
In short: as §1

Setaria faberi (SETFA) [8] = experiment: Post-emergence herbicidal glasshouse test on Setaria faberi; settings: post-emergence; 1000 g/h; evaluated after 13 days
In short: as §1

[9] = test system: Echinochloa crus-galli (ECHCG); experiment: Post-emergence herbicidal glasshouse test on Echinochloa crus-galli; settings: post-emergence; 1000 g/h; evaluated after 13 days
In short: as §1

Solanum nigrum (SOLNI) [10] = experiment: Post-emergence herbicidal glasshouse test on Solanum nigrum; settings: post-emergence; 1000 g/h; evaluated after 13 days
In short: as §1

[11] = test system: Amaranthus retoflexus (AMARE); experiment: Post-emergence herbicidal glasshouse test on Amaranthus retoflexus; settings: post-emergence; 1000 g/h; evaluated after 13 days
In short: as §1

[12] = test system: Ipomoea hederacea (IPOHE); experiment: Post-emergence herbicidal glasshouse test on Ipomoea hederacea; settings: post-emergence; 1000 g/h; evaluated after 13 days
In short: as §1

Row | Structure (SMILES) | PRE Application ALOMY herbicidal damage (five point scale) [1] | PRE Application SETFA herbicidal damage (five point scale) (Setaria faberi (SETFA) [2]) | PRE Application ECHCG herbicidal damage (five point scale) [3] | PRE Application SOLNI herbicidal damage (five point scale) (Solanum nigrum (SOLNI) [4]) | PRE Application AMARE herbicidal damage (five point scale) [5] | PRE Application IPOHE herbicidal damage (five point scale) [6] | POST Application ALOMY herbicidal damage (five point scale) [7] | POST Application SETFA herbicidal damage (five point scale) (Setaria faberi (SETFA) [8]) | POST Application ECHCG herbicidal damage (five point scale) [9] | POST Application SOLNI herbicidal damage (five point scale) (Solanum nigrum (SOLNI) [10]) | POST Application AMARE herbicidal damage (five point scale) [11] | POST Application IPOHE herbicidal damage (five point scale) [12]
1 | Cc1ccc(-c2c(C(F)(F)F)ccn(-c3cnn(C)c(=O)c3O)c2=O)cc1 [Compound 7.006] | 3 (3=40-59% damage) | 4 (4=60-79% damage) | 5 (5=80-100% damage) | 5 (5=80-100% damage) | 5 (5=80-100% damage) | 2 (2=20-39% damage) | 3 (3=40-59% damage) | 3 (3=40-59% damage) | 5 (5=80-100% damage) | 5 (5=80-100% damage) | 4 (4=60-79% damage) | 3 (3=40-59% damage)
2 | Cc1ccc(F)cc1-c1c(C(F)(F)F)ccn(-c2cnn(C)c(=O)c2O)c1=O [Compound 7.007] | 5 (5=80-100% damage) | 5 (5=80-100% damage) | 5 (5=80-100% damage) | 5 (5=80-100% damage) | 5 (5=80-100% damage) | 4 (4=60-79% damage) | 5 (5=80-100% damage) | 5 (5=80-100% damage) | 5 (5=80-100% damage) | 5 (5=80-100% damage) | 5 (5=80-100% damage) | 5 (5=80-100% damage)
3 | Cn1ncc(-n2ccc(C(F)(F)F)c(-c3ccc([N+](=O)[O-])cc3)c2=O)c(O)c1=O [Compound 7.009] | 5 (5=80-100% damage) | 5 (5=80-100% damage) | 5 (5=80-100% damage) | 5 (5=80-100% damage) | 5 (5=80-100% damage) | 4 (4=60-79% damage) | 5 (5=80-100% damage) | 5 (5=80-100% damage) | 5 (5=80-100% damage) | 5 (5=80-100% damage) | 5 (5=80-100% damage) | 5 (5=80-100% damage)
4 | Cn1ncc(-n2ccc(C(F)(F)F)c(-c3ccc(C(F)(F)F)nc3)c2=O)c(O)c1=O [Compound 7.010] | 5 (5=80-100% damage) | 5 (5=80-100% damage) | 5 (5=80-100% damage) | 5 (5=80-100% damage) | 5 (5=80-100% damage) | 5 (5=80-100% damage) | 5 (5=80-100% damage) | 5 (5=80-100% damage) | 5 (5=80-100% damage) | 5 (5=80-100% damage) | 5 (5=80-100% damage) | 5 (5=80-100% damage)
5 | C=Cc1cccc(-c2c(C(F)(F)F)ccn(-c3cnn(C)c(=O)c3O)c2=O)c1 [Compound 7.011] | 2 (2=20-39% damage) | 2 (2=20-39% damage) | 1 (1=0-19% damage) | 5 (5=80-100% damage) | 5 (5=80-100% damage) | 2 (2=20-39% damage) | 1 (1=0-19% damage) | 3 (3=40-59% damage) | 5 (5=80-100% damage) | 5 (5=80-100% damage) | 5 (5=80-100% damage) | 3 (3=40-59% damage)
